Here are results for two compounds from US20040266849A1, “Therapeutic compounds for treating dyslipidemic conditions” (priority 2004, published 2004).

The test system of this assay is ABCA1 mRNA. As to the kind of experiment: Induction of ABCA1 mRNA levels in human primary macrophages. It is filed as cell-based. As to conditions: Primary macrophage, 18 h + 6 h, vs DMSO control, read-out: Fold Induction of ABCA1 mRNA (Mean ± SEM). The method, then: Induction of ABCA1 mRNA levels
Human Primary Macrophages were used to test the ability of LXR ligands to induce the expression of ABCA1 mRNA. The collection and purification of monocytes and their subsequent differentiation into macrophages by culturing in Teflon jars for 7-9 days was performed according to Wright and Silverstein J. Exp. Med. V156, October 1982 pp. 1149-1164. Cells were harvested from the Teflon jars and seeded into appropriate vessels in RPMI1640 plus 12% human serum and antibiotics. Cells were allowed to recover overnight before treatment. Treatment was for 18 hours with the described compounds, followed by a re-application of fresh compounds for an additional 6 hours in DMEM minus Phenol Red with 10% charcoal stripped FCS. The cells were harvested and total RNA prepared using the phenol/guanidine isothiocyanate method as supplied and described by Molecular Research Center, Inc. (TRI REAGENT® Cat. No. TR 118). ABCA1 mRNA levels in the total RNA were measured using the TaqMan® mRNA quantitation system, following protocols published by the manufacturer (Perkin-Elmer). The oligonucleotide PCR primers used to detect ABCA1 were: […]
The oligonucleotide probe used was:
ABCA1 mRNA levels in each sample were normalized to the mRNA levels for the 23 kDa highly basic protein. The oligonucleotide PCR primers used to detect the 23 kDa highly basic protein were: […]

SMILES strings stand for the structures.

As for `CCCc1c(OCCCN(C)C(=O)CC(C)(C)CC(=O)O)ccc2c(C(F)(F)F)noc12` [Compound (3d)], the fold induction at 10 µM is 13.6 ± 1.1. In addition, under “0.1 μM”, the fold induction at 0.1 µM stood at 0.9 ± 0.2. Further, the fold induction at 1 µM (1.0 μM) amounted to 3.3 ± 0.3.

For the compound `CC(C)CC[C@@H](O)[C@@H](C)[C@H]1CC[C@H]2[C@@H]3CC=C4C[C@@H](O)CC[C@]4(C)[C@H]3CC[C@]12C` [22-(R)-hydroxycholesterol, reference compound], the fold induction at 10 µM is 8 ± 1.37.
